Test results as given in US9012431B2, “Boron-containing small molecules as anti-inflammatory agents” (Anacor Pharmaceuticals, Inc., priority 2008, dated 2015).
Read-outs that look alike come from different tables or passages of the source.

Key:
female CBA/J mice = experiment: Local lymph node assay (hypersensitivity response); assay type: in vivo
PDE3 Cat = tested on: T1, PDE3 Cat; experiment: PDE3 inhibition; assay type: biochemical
T1 construct: Recombinant human PDE enzymes were expressed in a baculoviral system.; PDE isoforms tested include

IL-5 = experiment: Cytokine assay, IL-5 release from PBMC; assay type: cell-based; settings: human PBMC, 20 ug/mL PHA, supernatant at 48 hours
How it was run: (§1)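 First, frozen human PBMC are thawed, pelleted and taken up in RPMI 1640 containing 10% FBS. Next, compound serially diluted from a 10 mM DMSO stock is added at 10, 1, 0.1 or 0.01 μM (n=3). Finally, released cytokine is quantified.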

[1] = tested on: IL-6 production by human PBMCs; experiment: IL-6 production by LPS- or PHA-stimulated PBMCs; assay type: cell-based
[2] = tested on: IL-5 production by human PBMCs; experiment: IL-5 production by LPS- or PHA-stimulated PBMCs; assay type: cell-based
IFN-γ = experiment: Cytokine assay, IFN-γ release from PBMC; assay type: cell-based; settings: human PBMC, 20 ug/mL PHA, supernatant at 24 hours
How it was run: as §1

PDE1A3 = molecular target: T2, PDE1A3 (Homo sapiens, UniProt P54750); experiment: PDE1 inhibition; assay type: biochemical
T2 construct: made in house; host or cells: baculoviral expression system
T2 sequence (P54750 whole entry): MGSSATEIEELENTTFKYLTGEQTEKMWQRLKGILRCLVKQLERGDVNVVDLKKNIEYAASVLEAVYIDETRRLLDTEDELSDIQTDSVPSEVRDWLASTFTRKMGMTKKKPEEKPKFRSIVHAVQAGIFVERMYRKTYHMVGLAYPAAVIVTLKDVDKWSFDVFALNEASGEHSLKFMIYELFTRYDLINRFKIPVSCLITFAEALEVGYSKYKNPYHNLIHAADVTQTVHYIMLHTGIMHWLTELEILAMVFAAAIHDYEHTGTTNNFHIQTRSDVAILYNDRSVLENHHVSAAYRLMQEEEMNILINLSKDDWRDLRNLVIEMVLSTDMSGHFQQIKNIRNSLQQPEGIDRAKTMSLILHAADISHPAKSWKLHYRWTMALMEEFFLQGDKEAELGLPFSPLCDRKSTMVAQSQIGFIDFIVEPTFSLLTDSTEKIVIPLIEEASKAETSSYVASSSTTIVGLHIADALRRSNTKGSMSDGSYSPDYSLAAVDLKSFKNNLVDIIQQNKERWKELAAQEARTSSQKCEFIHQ

PDE7A1 = molecular target: T3, PDE7A1 (Homo sapiens, UniProt Q13946); experiment: PDE7 inhibition; assay type: biochemical
T3 construct: made in house; host or cells: baculoviral expression system
T3 sequence (Q13946 whole entry): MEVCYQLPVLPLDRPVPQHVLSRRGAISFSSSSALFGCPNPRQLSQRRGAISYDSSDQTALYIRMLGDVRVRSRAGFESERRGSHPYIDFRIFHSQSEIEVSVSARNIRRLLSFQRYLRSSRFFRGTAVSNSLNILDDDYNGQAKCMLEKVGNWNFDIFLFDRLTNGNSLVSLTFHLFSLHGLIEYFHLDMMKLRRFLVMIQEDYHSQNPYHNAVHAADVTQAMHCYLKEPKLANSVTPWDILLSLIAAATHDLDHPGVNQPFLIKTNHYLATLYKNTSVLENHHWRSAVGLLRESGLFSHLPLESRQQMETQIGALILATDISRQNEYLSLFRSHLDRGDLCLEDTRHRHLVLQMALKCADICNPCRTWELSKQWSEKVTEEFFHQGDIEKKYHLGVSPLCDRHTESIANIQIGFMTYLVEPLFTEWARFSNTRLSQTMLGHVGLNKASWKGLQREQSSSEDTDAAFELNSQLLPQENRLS

[3] = tested on: T4, PDE4 partially purified from human U-937 myeloid leukemia cells; experiment: PDE4 Assay (enzyme from U-937 cells, [3H]cAMP); assay type: biochemical; settings: PDE4 from U-937 cells, Tris buffer pH 7.5, 20 minutes at 25° C.
T4 construct: PDE4 partially purified from human U-937 myeloid leukemia cells was used

[4] = tested on: IL-2 secretion from PBMCs; experiment: IL-2 secretion from PBMCs stimulated with PHA; assay type: cell-based, human; settings: PBMC
Description: (§2) Compounds were screened by a biochemical assay against PDE4 enzyme and cell-based cytokine release assays using PBMCs stimulated by LPS or phytohemagglutinin (PHA).

shrews (Suncus murinus) = settings: shrew (Suncus murinus), in vivo, po
[5] = tested on: IFN-γ secretion from PBMCs; experiment: IFN-γ secretion from PBMCs stimulated with PHA; assay type: cell-based, human; settings: PBMC
Description: as §2

all four PDE4 isoforms = experiment: PDE4 isoform inhibition; assay type: biochemical
Sprague-Dawley rats = settings: oral 30, 100, and 300 mg/kg/day, 14 consecutive days
PDE4Cat = tested on: T5, PDE4Cat; experiment: PDE4Cat inhibition; assay type: biochemical; settings: standard: Rolipram
T5 construct: Recombinant human PDE enzymes were expressed in a baculoviral system.

[6] = tested on: IL-10 production by human PBMCs; experiment: IL-10 production by LPS- or PHA-stimulated PBMCs; assay type: cell-based
MCP-1 and PGE2 = experiment: Release of chemokine MCP-1 and PGE2; assay type: cell-based
Description: This activity is explained in part by the inhibition of phosphodiesterase-4 (PDE-4).

[7] = tested on: phosphodiesterase 4 (PDE4) enzyme derived from human U937 cells; experiment: PDE4 enzyme activity (enzyme derived from human U937 cells); assay type: biochemical; settings: versus substrate cAMP
Description: (§3) The structure-activity relationships of novel boron-containing anti-inflammatory agents was investigated.
as §2

[8] = tested on: T6, phosphodiesterase 4 (PDE4) enzyme derived from human U937 cells; experiment: as above; assay type: biochemical
T6 construct: PDE4 IC50; other: biochemical assay, PDE4 enzyme derived from human U937 cells; other: PDE4 in human U937 cells
Description: as §3, §2

IL-10 = experiment: Cytokine assay, IL-10 release from PBMC; assay type: cell-based; settings: human PBMC, 20 ug/mL PHA, supernatant at 48 hours
How it was run: as §1

[9] = tested on: CD-1 (Crl.) derived male mice; experiment: Phorbol Ester Induced Mouse Ear Edema Model; assay type: in vivo; settings: topical, 6 h, 1 mg/ear × 2 topical, vehicle not given, ear swelling 6 hours after PMA
How it was run: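 Test compounds in acetone:ethanol 1:1 were applied topically to both ears 30 min before and 15 min after PMA challenge; dexamethasone positive control followed the same schedule. Ear thickness was measured by micrometer 6 h after PMA, and percent inhibition was calculated from ear-thickness increase versus vehicle controls.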

[10] = tested on: Escherichia coli strain WP2 uvrA; experiment: Bacterial mutagenicity assay with/without Aroclor-induced S9 (E. coli); assay type: cell-based; settings: up to 5000 μg per plate; presence or absence of Aroclor-induced S9 liver fraction
[11] = tested on: Salmonella typhimurium strains TA98, TA100, TA1535, and TA1537; experiment: Bacterial mutagenicity assay with/without Aroclor-induced S9 (Salmonella); assay type: cell-based; settings: up to 5000 μg per plate; presence or absence of Aroclor-induced S9 liver fraction
IL-2 = experiment: Cytokine assay, IL-2 release from PBMC; assay type: cell-based; settings: human PBMC, 20 ug/mL PHA, supernatant at 24 hours
How it was run: as §1

`N#Cc1ccc(Oc2ccc3c(c2)COB3O)cc1` [C17, 5-(4-cyanophenoxy)-1-hydroxy-1,3-dihydro-2,1-benzoxaborole] was tested, and the skin sensitizing activity (female CBA/J mice; mouse, in vivo) was “not considered to have skin sensitizing activity”, the stimulation index (female CBA/J mice; topical 1%, 5%, and 10% solution in acetone/ethanol (50:50, v/v)) was < 3 and the “inhibition of PDE3” value (PDE3 Cat) was “does not significantly inhibit”. The IC50 (PDE3 Cat; standard: Cilostazol) was 1000 to 10000 nM, the IC50 (IL-5) was 1000 to 4000 nM and the IC50 ([1]; PBMC, LPS- and PHA-induced cytokine production by human PBMCs, read-out: IC50 IL-6 (pro-inflammatory cytokines)) was > 30000 nM. The “effect on IL-6” value ([1]; PBMCs) was “not affected”, the IC50 ([2]; PBMC, LPS- and PHA-induced cytokine production by human PBMCs, read-out: IC50 IL-5 (Th2 cytokines)) was 1000 to 10000 nM and the “IL-5 inhibition, range in words” value ([2]; PBMCs) was “low micromolar range”. For the same compound, the IC50 (IFN-γ) was < 1000 nM, the “inhibition of PDE1” value (PDE1A3) was “does not significantly inhibit” and the IC50 (PDE1A3; standard: 8-methoxymethyl-IBMX) was 1000 to 10000 nM. The IC50 (PDE7A1; read-out: PDE7 IC50) was 730 nM, the IC50 (PDE7A1; standard: BRL-50481, read-out: IC50 PDE7A1) was < 1000 nM and the IC50 [3] was < 1000 nM. The IC50 ([4]; Homo sapiens, PBMCs stimulated with PHA, read-out: IL-2 secretion IC50) was 460 nM, the IC50 ([4]; LPS- and PHA-induced cytokine production by human PBMCs, read-out: IC50 IL-2 (Th1 cytokines)) was < 1000 nM and the “no-observed-effect level (NOEL), emesis” value (shrews (Suncus murinus)) was 10 mg/kg. For the same compound, the IC50 ([5]; Homo sapiens, PBMCs stimulated with PHA, read-out: IFN-γ secretion IC50) was 270 nM, the IC50 ([5]; LPS- and PHA-induced cytokine production by human PBMCs, read-out: IC50 IFNg (Th1 cytokines)) was < 1000 nM and the “inhibition of PDE4 isoforms” value (all four PDE4 isoforms) was “inhibiting all four PDE4 isoforms equally”. The “mortality, clinical pathology, microscopic or macroscopic changes” value (Sprague-Dawley rats) was “No mortality, adverse effects on clinical pathology, or microscopic or macroscopic changes were observed in any dose group”, the IC50 (PDE4Cat) was < 1000 nM and the IC50 ([6]; PBMC, LPS- and PHA-induced cytokine production by human PBMCs, read-out: IC50 IL-10 (Th2 cytokines)) was < 1000 nM. For the same compound, the “IL-10 inhibition, range in words” value ([6]; PBMCs) was “low micromolar range”, the “release of the chemokine MCP-1 and PGE2” value (MCP-1 and PGE2) was “inhibits the release” and the “mode of inhibition (enzyme kinetic analysis)” value [7] was “competitive inhibitor”. It also gave an IC50 ([8]; PDE4 in human U937 cells, read-out: PDE4 enzyme activity IC50) of 490 nM, an IC50 ([8]; biochemical assay, PDE4 enzyme derived from human U937 cells, read-out: PDE4 IC50) of 490 nM and an IC50 (IL-10) of 4000 to 10000 nM. For the same compound, the inhibition in vivo at 1 mg [9] was 60 to 90%, the mutagenic activity [10] was “no mutagenic activity” and the mutagenic activity [11] was “no mutagenic activity”. The IC50 (IL-2) was < 1000 nM.
